From article PMC12362433, “Systematic Determination of the Impact of Structural Edits on Peptide Accumulation into Mycobacteria” (ACS Chemical Biology, 2025)
Bridge positions count the residues as written; N and C are the ends. Square brackets hold non-standard residues; d marks the D form. Peptide text beside a SMILES is read from it. * marks the point of attachment. Lys(N3) = [N-]=[N+]=NCCCC[C@H](N)C(=O)O; Azidoacetyl = [N-]=[N+]=NCC(=O)*; NMeF = CN[C@@H](Cc1ccccc1)C(=O)O; NMeT = CN[C@H](C(=O)O)[C@@H](C)O; NMeL = CN[C@@H](CC(C)C)C(=O)O; dNMeL = CN[C@H](CC(C)C)C(=O)O; NMeK = CN[C@@H](CCCCN)C(=O)O; NMeV = CN[C@H](C(=O)O)C(C)C

Assays:
[1] = Serum stability assay in mouse serum; assay type: in vitro ADME
Description: Serum stability assay. Time course degradation in mouse serum was evaluated for peptides Lin0, Cyc0, Nmet0 and Nmet9. Compounds were incubated in mouse serum at a concentration of 1.0 mM to a total of 200 μL at 37 °C. At each time point (0, 15, 30, 60 min), 4 0 μL of the solution was aliquoted and diluted in a 1:1 solution o f H2O/CH3CN (101 μL) containing trichloroacetic acid (9 μL) and 100 μM of internal standard Fm o c -L-phenylalanine. This mixture was incubated in ice for 5 min to precipitate serum proteins.
The samples were then centrifuged at 21,000×g for 5 min. 140 μL of the supernatant was then transferred to a filter tube and centrifuged again at 21,000× g for 5 min to filter. 110 μL of the filtrate was then analyzed using Phenomenex Luna 5 µm C8(2) on RP-HPLC; gradient elution in H2O/CH 3CN with 0.1% TFA at 1 mL/min. Peptide identity was confirmed via peak collection and subsequent matrix-assisted laser desorption ionization time-of-flight (MALDI-TOF) mass spectroscopy (Shimadzu 8020). To eliminate variations in the overall signal intensity, area under the curve (AUC) for the peptides of interest at each time point was normalized to the AUC of the internal standard Fm o c -L-phenylalanine, the concentration of which was predetermined. These normalized AUC values were then further normalized to the “0 min” time point which was set to 100%. […]

Msm cells = settings: 25 μM TetD labeling; microscopy and EtBr accumulation/efflux
Description: Ethidium bromide (EtBr) whole-cell accumulation assay. To a 96-well plate, 90 µL of
T etD -modified Msm cells were added in triplicate. Next, 5 µL of 1 mM peptide stock
solutions were added to yield a final concentration of 50 µM. The volume in each well was
made up to 100 µL using PBS. To the blank and PBS control wells, 10 µL of PBS was
added at this point. For the blank wells, 90 µL of unlabeled cells were added in triplicate.
The plates were then incubated at 37 °C for the same duration as the corresponding PAC -
MAN assay incubation duration for that library. The cells were centrifuged for 2 min at
3000× g, and the supernatant was discarded. The pellets were then washed with 100 µL
PBST twice and finally resuspended in 100 µL of PBST. 95 µL of these cells were then
transferred to corresponding wells in a 96 -well, black, flat-bottomed plate. To each well,
5 µL of 100 µM EtBr (5 µM final) was added. The fluorescent intensities were measured
by a Biotek Synergy H1 microplate reader 60 m post -treatment with EtBr, with continuous
orbital shaking. Wavelengths: ethidium bromide, excitation 530 nm/emission 590 nm.

Msm = assay type: cell-based, Mycobacterium smegmatis; settings: against Msm; for MIC value: 48 h, three biological replicates
Description: Minimum inhibitory concentration (MIC) assay. Msm cells were inoculated from the glycerol stock to the according media and grown for 24 hours until 0.5- 0.6 OD. Testing peptides were dissolved in the 7H9 growth media mentioned above and made into serial dilutions from 128 µM. 200 µL of each concentration was added to a deep well 96-well plate – with each concentration added in triplicates. The cells were diluted […] to OD of around 0.05 with fresh 7H9 growth media. […] of diluted cells were added to the deep well plate each well and mixed well with the peptide solution. The plate was covered by an adhesive porous film and incubated at 37 °C with shaking at 250 rpm for 48 h. The contents from each well were then transferred to a flat-bottom 96-well plate for MIC value determination. MIC values were determined both visually and readings of OD (wells OD < 0.1) from a Biotek Synergy H1 microplate reader at 600 nm.

| SMILES | MIC value (Msm) | further results |
| --- | --- | --- |
| CC(=O)N[C@@H](CCCCN=[N+]=[N-])C(=O)N[C@@H](CC(C)C)C(=O)N[C@@H](CO)C(=O)N[C@@H](CCCCN)C(=O)N[C@@H](CO)C(=O)N[C@@H](Cc1ccccc1)C(N)=O [Lin0] (Ac-[Lys(N3)]LSKSF-NH2) | – | time to full degradation in serum [1]: ≤ 1 h |
| CC(C)C[C@@H](C(=O)N(C)[C@@H](CCCCN)C(=O)N(C)[C@@H](CC(C)C)C(=O)N(C)[C@@H](Cc1ccccc1)C(N)=O)N(C)C(=O)[C@H](CCCCN)N(C)C(=O)CN=[N+]=[N-] [Nmet5] (Azidoacetyl-[NMeK][NMeL][NMeK][NMeL][NMeF]-NH2) | – | serum stability (in words) ([1]; mouse serum, 37 °C, over 1 h): considerably greater serum stability than peptide Nmet0 |
| C[C@H](NC(=O)CCC(=O)N1Cc2ccccc2C#Cc2ccccc21)C(=O)N[C@H](CCC(=O)N[C@@H](CCCCN)C(=O)N[C@H](C)C(=O)O)C(N)=O [TetD] | – | cell morphology and cell envelope integrity after labeling (Msm cells): no significant changes in cell morphology or cell envelope integrity |
| CC(C)C[C@@H]1NC(=O)[C@@H]2CCCN2C(=O)[C@H](CC(C)C)NC(=O)[C@@H](NC(=O)[C@@H]2CCCN2C(=O)[C@@H](NC(=O)CN=[N+]=[N-])C(C)C)[C@@H](C)OC(=O)CNC(=O)[C@@H](CC(C)C)NC(=O)[C@@H]2CCCN2C(=O)[C@H](C(C)C)NC1=O [grisCyc] (Azidoacetyl-VPTLPLVP[dL]G; ester 3-C) | > 64 µM | – |
| CC(C)C[C@H](NC(=O)[C@@H]1CCCN1C(=O)[C@H](CC(C)C)NC(=O)[C@@H](NC(=O)[C@@H]1CCCN1C(=O)[C@@H](NC(=O)CN=[N+]=[N-])C(C)C)[C@@H](C)O)C(=O)N[C@H](C(=O)N1CCC[C@H]1C(=O)N[C@H](CC(C)C)C(=O)NCC(N)=O)C(C)C [grisLin] (Azidoacetyl-VPTLPLVP[dL]G-NH2) | > 64 µM | – |
| CC(C)C[C@@H]1NC(=O)[C@@H]2CCCN2C(=O)[C@H](CC(C)C)NC(=O)[C@@H](N(C)C(=O)[C@@H]2CCCN2C(=O)[C@H](C(C)C)N(C)C(=O)CN=[N+]=[N-])[C@@H](C)OC(=O)CNC(=O)[C@@H](CC(C)C)N(C)C(=O)[C@@H]2CCCN2C(=O)[C@H](C(C)C)N(C)C1=O [grisMeCyc] (Azidoacetyl-[NMeV]P[NMeT]LPL[NMeV]P[dNMeL]G; ester 3-C) | 2 µM | – |
| CC(C)C[C@H](NC(=O)[C@@H]1CCCN1C(=O)[C@H](CC(C)C)NC(=O)[C@H]([C@@H](C)O)N(C)C(=O)[C@@H]1CCCN1C(=O)[C@H](C(C)C)N(C)C(=O)CN=[N+]=[N-])C(=O)N(C)[C@H](C(=O)N1CCC[C@H]1C(=O)N(C)[C@H](CC(C)C)C(=O)NCC(N)=O)C(C)C [grisMeLin] (Azidoacetyl-[NMeV]P[NMeT]LPL[NMeV]P[dNMeL]G-NH2) | > 64 µM | fold increase in MIC value relative to grisMeCyc (Msm; loss of macrocyclization): > 32 fold |
